Patent US11851459B2, “Methods and uses of modulators of anaphase promoting complex (APC) activity for treating cancer” (University of Saskatchewan, priority 2018, dated 2023)
“Also recorded” adds a separate entry of the source.

How the values were obtained:
MDA-MB-231 cells = experiment: Scratch assay, migration of MDA-MB-231 cells; type: cell-based, human
Procedure: A. An equal number of MDA-MB-231 TNBC cells were grown to confluence in 6 well plates. The cells were then treated with increasing doses of metformin (0, 1, 5 and 10 mM) and a scratch was made in the cell lawn creating a void. At the times shown the number of cell that migrated into the void were counted. The experiment was repeated twice. B. WT MDA-MB-231 cells and cells stably expressing the C43-4 plasmid were grown as in A. Control cells were left untreated, with other cells treated with the DMSO control, 1 uM DOX or 2.5 uM M2I-1. A void was created in the cell lawn and the number of cells that entered the void were scored as above. This experiment was repeated 4 times. This experiment was also repeated 4 times in an independently generated stable C43-4 cell line with similar results. The error of the mean is shown. C. WT and MDA-MB-231 cells stably expressing the C2-4B peptide plasmid were used for the scratch assay as described above. D. WT and MDA-MB-231 cells stably expressing the C13-3 peptide plasmid were used for the scratch assay as described above. The experiments in C and D were only performed once.
Assays using WT and C43-4 expressing cells have been done 4 times. Assays using C13-3 and C2-4B cells have only been conducted once. Metformin treated cells have been used twice. For scratch assays, a scratch is made down a confluent plate of cells, leaving a void. The number of cells that migrate back into the void over time is determined.

APC (substrate HURP) = experiment: APC substrate westerns, Tamoxifen resistant MCF7 cells; type: cell-based, human
Procedure: (§1) Parental MCF7 human breast cancer cells, or cells selected for resistance to Tamoxifen, were treated with 1 or 5 uM M2I-1. Tamoxifen resistant cells were also treated with both DOX and M2I-1. Cell viability was measured using Trypan Blue staining (3 rpts). B. Protein lysates were prepared from the cells used in A. The APC target HURP was measured using antibodies against HURP. C. Trypan Blue was used to measure viability of parental and DOX resistant OSW canine lymphoma cells pretreated with 1 or 5 μM M2I-1 (18 hrs), followed by 1 μM DOX (48 hrs). Parental cells were only treated with monotherapy (3 rpts). ND, no data. D. OSW matched cells treated with the APC activator M2I-1 were prepared for APC substrate westerns E. Quantification of western protein abundance (3 rpts).
(§2) Human MCF7 breast cancer cells selected for resistance to Tamoxifen were treated with the M2I-1 activator in culture.

[1] = tested on: MCF7 breast cancer cells selected for resistance to Tamoxifen; experiment: Cell viability by Trypan Blue, Tamoxifen resistant MCF7 cells; type: cell-based, human
Procedure: as §1, §2

[2] = tested on: patient derived xenografted (PDX) tumor; experiment: Patient derived xenograft (4-28 PDX) triple negative breast cancer mouse model; type: in vivo
Text: A. In vivo study of M2I-1 impact on a human patient derived xenografted breast tumor (4-28 PDX). An increased dose of M2I-1 was given to mice harboring implanted 4-28 tumor fragments ([…] i.p. injection (treatment) versus mock (DMSO) day 1, with tumor size measured every other day. B. Western analysis of apoptosis (PARP cleavage—24 kDa band) and APC substrate abundance (Cyclin B) in liver and tumor of treated and control after sacrifice on Day 8.
(§3) A mouse model for growing patient derived breast tumor cells obtained from a patient with triple negative breast cancer was developed. This patient had developed resistance to Doxorubicin. Tumors growing in these mice grow rapidly. Mice growing the patient derived xenografted (PDX) tumor were injected with various amounts of M2I-1. […] Since the APC was activated in the canines tested in this study following treatment with metformin, it was asked if metformin can directly activate the APC. Reduced APC substrate Cyclin B levels following metformin treatment in human MCF7 breast cancer cells was observed, similar to that observed when MDF7 cells express the C43-4 plasmid (see below for more on this plasmid) (FIG. 21).

[3] = tested on: OSW dog lymphoma cells selected for chemotherapeutic resistance; experiment: Cell viability by Trypan Blue, DOX resistant OSW cells; type: cell-based, canine; details: 1 or 5 μM 18 hrs then 1 μM DOX 48 hrs
Procedure: as §1, §2

drug resistant lymphoma = experiment: Canine model of drug resistant lymphoma, metformin adjunct therapy; type: in vivo
Procedure: Enrolled companion canines that presented to the Western College of Veterinary Medicine in Saskatoon with lymphoma that had failed CHOP therapy were enrolled in the study. Canine lymphoma is very common, almost always results in a drug resistant form, and is treated identically in humans and canines.
Each week tumor tissue was received to use for western determination of MDR markers and RNA microarrays.
One canine (canine 6) entered remission after failing all other treatment options. RNA was sampled from the MDR tumor, during metformin treatment, during tumor shrinkage and remission and during relapse and microarray analysis was performed.

APC (substrate Cyclin B) = experiment: Cyclin B protein levels in MCF7 cells; type: cell-based, human; details: MCF7, 48 hrs; 1 mM metformin or transient transfection of peptide plasmid
Procedure: MCF7 breast cancer cells were treated with 1 mM metformin or transiently transfected with an APC activating peptide (C43-4) for 48 hrs, then harvested for assessment of Cyclin B protein levels. Cyclin B is an APC target.
as §3

[4] = tested on: multiple drug resistant breast cancer; details: cited from earlier work
Apc10 = target: T1, Apc10 (Saccharomyces cerevisiae, UniProt P53068); experiment: Yeast 2-hybrid (Y2H) assay, Apc10 bait; type: binding
T1 construct: expressed in transfected cells; host or cells: yeast Y2H cells
T1 sequence (P53068 1-250): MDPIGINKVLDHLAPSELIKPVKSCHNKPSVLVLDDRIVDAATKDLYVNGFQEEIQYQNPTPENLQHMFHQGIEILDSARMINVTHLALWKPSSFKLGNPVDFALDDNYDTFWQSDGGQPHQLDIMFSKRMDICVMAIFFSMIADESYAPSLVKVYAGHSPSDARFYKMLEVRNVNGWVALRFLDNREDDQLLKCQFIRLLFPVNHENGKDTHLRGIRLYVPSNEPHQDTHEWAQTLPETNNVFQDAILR
Procedure: The reverse genetic screen utilized a yeast 2-hybrid (Y2H) protocol that selected for peptides that bound to the APC subunits Apc5 or Apc10 (see FIG. 8 for APC structure), to assess whether peptide-binding might modify APC function. Peptides that bound APC subunits were then assayed for those that suppressed APC mutant defects.
A library of random small peptides were cloned into a Thioredoxin (Trx) scaffold (see FIG. 9 for Trx-peptide structure) and expressed from a galactose-inducible Y2H prey vector in cells expressing the Apc10 bait vector (the modified Apc10 is still part of the complete APC complex). Six peptides that reproducibly interacted with the Apc10 bait construct in Y2H assays were identified (FIG. 1A) and were examined further. Cells will only grow in this assay if the peptide interacts with Apc5 or Apc10.
To identify peptides that bound to either Apc5 or Apc10 proteins using a yeast 2-hybrid (Y2H) screen, random small peptides were cloned into the TrxA scaffold (library provided by R. Geyer; FIG. 9) and expressed from a galactose-inducible Y2H prey vector in cells harboring either the APC5 or APC10 genes cloned into the Y2H bait vectors (APC5/APC10 bait constructs complement APC mutant defects).
Over 100 peptides that bound either Apc5 or Apc10 were recovered from millions screened. Six peptides that reproducibly interacted with the Apc5 or Apc10 bait construct in Y2H assays were examined further. Vectors expressing these 6 peptides were transformed into WT or APC mutant cells and assessed for ts growth.

wild type (WT) cells = experiment: C43-4 mutant peptides, spot dilution under temperature and UV stress, WT cells; type: cell-based, yeast; details: low level expression on glucose
Procedure: The cells were exposed to 5 sec of UV from a UV box prior to incubation. The plus signs define growth compared to the empty vector control.
Residues 2, 7, 8, 10, 12 and 14 of peptide C43-4 are conserved with Htz1. All of these residues were mutated to alanine (FIG. 10). Peptides that contained mutations designed to determine which amino acids were required for function were generated. These mutant peptides were grown in wild type cells and in cells that had APC10 mutated, under temperature and UV stress conditions (FIGS. 10-12).
These cells were spot diluted on Trp^− plates and grown at the temperatures shown and/or exposed to ultraviolet (UV) irradiation (FIGS. 10-12). At low level expression on glucose, some of the mutations caused stress dependent phenotypes.
• 1. Cells were cultured overnight in Trp^− 2% glucose media • 2. The growth of the cells was determined by measuring the optical density (OD) of the cells at 600 nm (OD600) • 3. Cells were diluted to OD600 of 1 with fresh culture media • 4. 100 ul of each culture was pipetted into a well of a 96 well plate • 5. 10 ul of the each starting culture was pipetted into 90 ul of water in 4 additional wells to make a 10-fold serial spot dilution • 6. 5 ul from each serial dilution was spotted onto plates containing standard growth media with either 2% glucose or 2% galactose using a multi-pipettor • 7. The plates were exposed to UV • 8. […]

apc10Δ cells = experiment: C43-4 mutant peptides, spot dilution under temperature and UV stress, apc10Δ cells; type: cell-based, yeast; details: glucose or galactose
Procedure: The cells were exposed to 5 sec of UV from a UV box prior to incubation.
Expression of the WT and mutant peptides have reduced activity in apc10Δ cells (FIG. 12).
• 1. Cells were cultured overnight in Trp^− 2% glucose media • 2. The growth of the cells was determined by measuring the optical density (OD) of the cells at 600 nm (OD600) • 3. Cells were diluted to OD600 of 1 with fresh culture media • 4. 100 ul of each culture was pipetted into a well of a 96 well plate • 5. 10 ul of the each starting culture was pipetted into 90 ul of water in 4 additional wells to make a 10-fold serial spot dilution • 6. 5 ul from each serial dilution was spotted onto plates containing standard growth media with either 2% glucose or 2% galactose using a multi-pipettor • 7. The plates were exposed to UV • 8. The plates were then placed at room temperature, 30, or 37° C. for 3-7 days • 9. The plates were scanned and saved as tiff files

| Molecule | metastatic potential / in vitro migration (MDA-MB-231 cells) | levels of APC substrates (APC (substrate HURP)) | cell killing / toxicity in combination with chemotherapy (DOX) ([1]; Tamoxifen resistant MCF7) | growth / toxicity of activator alone ([1]; Tamoxifen resistant MCF7, 1 or 5 uM, 18 hrs) | tumor growth ([2]; PDX TNBC in mice, i.p. injection, various amounts) | markers of APC substrates in the tumor ([2]; western, Cyclin B, Day 8) | cell killing by chemotherapy only in presence of activator [3] | APC substrate RNA levels (drug resistant lymphoma; canine 6, microarray) | markers of multiple drug resistance (drug resistant lymphoma; canine tumor tissue, westerns) | remission (drug resistant lymphoma; one canine (canine 6)) | APC substrate Cyclin B protein levels (APC (substrate Cyclin B)) | multiple drug resistant breast cancer in vitro [4] | binds Apc10 in a yeast 2 hybrid assay (Apc10) | stress resistance (growth compared to empty vector) (wild type (WT) cells) | activity / toxicity of peptide in apc10Δ cells (apc10Δ cells) |
| --- | --- | --- | --- | --- | --- | --- | --- | --- | --- | --- | --- | --- | --- | --- | --- |
| CC(C)CN(CC(C)C)c1ccc(C=C2C(=O)NC(=S)NC2=O)cc1[N+](=O)[O-] [M2I-1, Mad2 Inhibitor-1] | inhibit the in vitro migration | reduced the levels of several APC substrates tested | only in the presence of M2I-1 were cells killed; also recorded: enhances toxicity | did not impair the growth; also recorded: not toxic | stalled in these cells in a dose-dependent manner | positive for APC activation | observed | – | – | – | – | – | – | – | – |
| CN(C)C(=N)N=C(N)N [metformin] | blocked | – | – | – | – | – | – | reduced APC substrate RNA levels | reverse markers of multiple drug resistance | induced remission | Reduced | prevents and reverses | – | – | – |
| NGSSHNDARVRRLTLISRLC [C43-4-3, alanine at position 8 of C43-4] | – | – | – | – | – | – | – | – | – | – | – | – | binds Apc10 | increased stress resistance further | remained toxic |
